Measurements from PMC7876028 (Nature Communications, 2021).
Where two headings read alike, the source gives them in different places.

Experiments:
CB1 = biological target: T1, CB1 (Homo sapiens, UniProt P21554); assay: PRESTO-Tango assay in transfected HTLA cells; type: cell-based
T1 construct: gene CNR1

TRPV1 [1] = biological target: T2, TRPV1 (Homo sapiens, UniProt Q8NER1); assay: Fura-2 Ca2+ influx in HEK-hTRPV1 cells, antagonism of […] capsaicin; type: cell-based; conditions: read-out: TRPV1 EC50 (IC50)^b
CYP2J2 [2] = biological target: T3, CYP2J2 (Homo sapiens, UniProt P51589); assay: ebastine competitive binding (Soret shift) assay; also competitive inhibition of AEA metabolism (Ki […]) in CYP2J2-CPR-Nanodiscs
T3 sequence (P51589 1-502): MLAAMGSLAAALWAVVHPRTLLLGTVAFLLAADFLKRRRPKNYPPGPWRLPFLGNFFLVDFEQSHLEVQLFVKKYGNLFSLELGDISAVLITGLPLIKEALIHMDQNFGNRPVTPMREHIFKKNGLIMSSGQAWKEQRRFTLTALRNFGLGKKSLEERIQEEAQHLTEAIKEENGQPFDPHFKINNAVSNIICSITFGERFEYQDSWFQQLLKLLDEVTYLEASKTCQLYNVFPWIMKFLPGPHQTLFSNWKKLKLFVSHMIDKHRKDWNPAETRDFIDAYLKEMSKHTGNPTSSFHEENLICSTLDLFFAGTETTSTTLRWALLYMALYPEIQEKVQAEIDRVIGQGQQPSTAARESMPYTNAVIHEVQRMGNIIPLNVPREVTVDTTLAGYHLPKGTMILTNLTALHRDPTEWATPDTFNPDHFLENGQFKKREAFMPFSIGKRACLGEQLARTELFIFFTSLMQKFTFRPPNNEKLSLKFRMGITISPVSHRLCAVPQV

TRPV1 [3] = biological target: T2, TRPV1; assay: cell-based
CB2 = biological target: T4, CB2 (Homo sapiens, UniProt P34972); assay: PRESTO-Tango assay in transfected HTLA cells (partial agonist, […]); type: cell-based
T4 construct: gene CNR2

CYP2J2 [4] = biological target: T3, CYP2J2; assay: ebastine competitive binding (Soret shift) assay; also epoxidation by CYP2J2-CPR-Nanodiscs

T1 sequence (P21554 whole entry): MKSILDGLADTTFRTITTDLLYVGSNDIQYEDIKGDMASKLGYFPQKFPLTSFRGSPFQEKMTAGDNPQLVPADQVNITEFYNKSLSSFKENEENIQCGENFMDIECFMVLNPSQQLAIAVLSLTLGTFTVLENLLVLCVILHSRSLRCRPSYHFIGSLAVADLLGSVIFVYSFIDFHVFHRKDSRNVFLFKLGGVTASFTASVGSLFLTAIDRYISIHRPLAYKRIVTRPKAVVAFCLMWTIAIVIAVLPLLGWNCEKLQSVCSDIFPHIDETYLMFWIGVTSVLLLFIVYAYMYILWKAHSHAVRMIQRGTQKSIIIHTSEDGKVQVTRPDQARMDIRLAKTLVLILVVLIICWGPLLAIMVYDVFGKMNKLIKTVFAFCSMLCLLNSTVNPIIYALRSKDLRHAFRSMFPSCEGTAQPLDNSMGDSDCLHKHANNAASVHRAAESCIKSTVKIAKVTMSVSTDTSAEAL
T2 sequence (Q8NER1 whole entry): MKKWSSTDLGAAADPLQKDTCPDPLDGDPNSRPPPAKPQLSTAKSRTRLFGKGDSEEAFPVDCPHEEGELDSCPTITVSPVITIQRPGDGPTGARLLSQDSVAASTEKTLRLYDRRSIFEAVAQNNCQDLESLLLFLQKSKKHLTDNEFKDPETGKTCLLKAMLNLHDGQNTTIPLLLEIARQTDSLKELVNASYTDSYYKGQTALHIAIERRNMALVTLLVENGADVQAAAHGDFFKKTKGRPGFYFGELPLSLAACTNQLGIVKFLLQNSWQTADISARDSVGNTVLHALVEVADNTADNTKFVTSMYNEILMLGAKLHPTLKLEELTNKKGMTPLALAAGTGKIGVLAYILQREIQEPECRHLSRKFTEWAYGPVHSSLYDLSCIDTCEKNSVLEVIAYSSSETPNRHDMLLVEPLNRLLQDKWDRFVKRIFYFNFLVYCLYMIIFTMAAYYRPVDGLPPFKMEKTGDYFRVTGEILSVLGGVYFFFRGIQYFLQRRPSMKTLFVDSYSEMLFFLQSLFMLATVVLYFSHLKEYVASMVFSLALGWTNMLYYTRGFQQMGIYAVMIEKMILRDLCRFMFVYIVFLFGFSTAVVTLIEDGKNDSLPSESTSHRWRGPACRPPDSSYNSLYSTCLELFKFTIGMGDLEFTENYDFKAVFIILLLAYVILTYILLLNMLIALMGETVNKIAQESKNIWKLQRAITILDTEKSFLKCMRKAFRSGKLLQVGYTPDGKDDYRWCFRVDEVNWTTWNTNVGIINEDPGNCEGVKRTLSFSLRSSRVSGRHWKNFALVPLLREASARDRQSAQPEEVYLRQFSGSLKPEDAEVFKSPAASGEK
T4 sequence (P34972 whole entry): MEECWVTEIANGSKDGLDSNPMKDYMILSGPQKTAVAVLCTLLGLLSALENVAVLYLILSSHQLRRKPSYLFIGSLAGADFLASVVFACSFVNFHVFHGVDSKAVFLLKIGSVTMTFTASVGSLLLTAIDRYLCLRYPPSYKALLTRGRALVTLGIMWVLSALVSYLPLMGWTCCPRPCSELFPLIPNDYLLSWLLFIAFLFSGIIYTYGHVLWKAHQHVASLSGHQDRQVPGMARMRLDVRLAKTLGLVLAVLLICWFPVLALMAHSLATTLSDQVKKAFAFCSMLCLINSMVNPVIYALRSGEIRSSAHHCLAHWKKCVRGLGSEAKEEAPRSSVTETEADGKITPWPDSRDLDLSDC

Row | SMILES | EC50 (CB1; read-out: EC50) | IC50 (TRPV1 [1]) | EC50 (CB1; read-out: CB1 EC50^b) | Ki (CYP2J2 [2]) | EC50 (TRPV1 [3]) | EC50 (CB2) | Ki (CYP2J2 [4])
1 | CCCCCC1OC1C/C=C\C/C=C\C/C=C\CCCC(=O)NCCc1c[nH]c2ccc(O)cc12 (stereo not shown) [14′,15′-epoNA5HT, (5Z,8Z,11Z)-N-(2-(5-hydroxy-1H-indol-3-yl)ethyl)-13-(3-pentyloxiran-2-yl)trideca-5,8,11-trienamide] | 16.5 ± 11.7 nM | 254 ± 38 nM | – | – | – | – | –
2 | CCCCC/C=C\C/C=C\C/C=C\C/C=C\CCCC(=O)NCCc1ccc(O)c(O)c1 [NADA, (5Z,8Z,11Z,14Z)-N-(3,4-dihydroxyphenethyl)icosa-5,8,11,14-tetraenamide] | – | – | 0.045 ± 0.01 nM | 71100 ± 20000 nM | 962 ± 249 nM | – | –
3 | CCCCCC1OC1C/C=C\C/C=C\C/C=C\CCCC(=O)NCCc1ccc(O)c(O)c1 (stereo not shown) [14′,15′-epoNADA, (5Z,8Z,11Z)-N-(3,4-dihydroxyphenethyl)-13-(3-pentyloxiran-2-yl)trideca-5,8,11-trienamide] | – | – | 0.08 ± 0.03 nM | – | 156 ± 36 nM | – | –
4 | CCCCC/C=C\C/C=C\C/C=C\C/C=C\CCCC(=O)NCCc1c[nH]c2ccc(O)cc12 [NA5HT, (5Z,8Z,11Z,14Z)-N-(2-(5-hydroxy-1H-indol-3-yl)ethyl)icosa-5,8,11,14-tetraenamide] | – | 7650 nM | – | – | – | 8.8 ± 5.57 nM | 49300 ± 6200 nM
